What was measured:
[1] = test system: HF/NASH mice (hepatic oxidative stress and mitochondrial function); assay: Dietary HF/NASH mouse model, tropifexor treatment for the last 12 of 20 weeks; format: in vivo, C57BL/6J mice
Source text: Molecular, structural and functional analysis was applied to assess oxidative stress and mitochondria function in NASH model.
Similar to human disease, transition from steatosis to NASH with fibrosis in NASH mice is associated with mitochondrial dysfunction characterized by structural and functional alterations. Decline in hepatic mitochondrial function is manifested in HF/NASH mice by decreased activities of tricarboxylic acid (TCA) cycle and electron transport chain (ETC) as well as diminished ATP production. This is accompanied by oxidative damage and depletion of antioxidant enzymes. […] This was manifested by a marked increase in mitochondrial function with concomitant restoration of oxidative balance associated with increased antioxidant defenses and decreased oxidative stress.

[2] = test system: patients with biopsy-proven NASH and fibrosis stages 2-3; assay: FLIGHT-FXR (NCT02855164) Part C interim analysis at week 12; format: in vivo, human; conditions: for ALT, LS mean absolute change from baseline to Week 12 (SE) / Body weight, LS mean absolute change from baseline to Week 12 (SE) / GGT, LS mean absolute change from baseline to Week 12 (SE): full analysis set
Source text: Prespecified endpoints assessed at week 12 included overall safety and changes in alanine aminotransferase (ALT), hepatic fat fraction (HFF), gamma glutamyl transferase (GGT), and body weight.

NASH patients = assay: Study CLJN452A2202 Parts A and B, 12 weeks; format: in vivo, human

With `O=C(O)c1cc(F)c2nc(N3C4CC[C@H]3CC(OCc3c(-c5ccccc5OC(F)(F)F)noc3C3CC3)C4)sc2c1` (stereo partly drawn) [Tropifexor, 2-[(1R,3r,5S)-3-({5-cyclopropyl-3-[2-(trifluoromethoxy)phenyl]-1,2-oxazol-4-yl}methoxy)-8-azabicyclo[3.2.1]octan-8-yl]-4-fluoro-1,3-benzothiazole-6-carboxylic acid] the “Liver SOD activity” value ([1]; 0.3 mg/kg) was “fully restored”, the “GPx activity in serum and liver” value ([1]; 0.9 mg/kg) was “restored” and the “Liver SOD activity” value ([1]; 0.9 mg/kg) was “increased above the levels observed in ND mice”. For the same compound, the “Cell death (apoptosis) in liver: cleaved-caspase 3 staining and phospho-p38 protein levels” value ([1]; 20 weeks HF/NASH diet) was “attenuated cell death in a dose dependent manner”, the ATP synthesis ([1]; HF/NASH livers) was “improving” and the “Citrate synthase (CS) activity” value ([1]; HF/NASH livers) was “dose-dependently restored”. For the same compound, the “Complex I and Complex II activities” value ([1]; HF/NASH livers) was “restoring”, the “Content of all five respiratory chain (OXPHOS) proteins” value ([1]; HF/NASH livers, 0.1 mg/kg) was “full restoration” and the “Expression of mitochondrial biogenesis genes (PGC-1a, Nrf1, Tfam)” value ([1]; HF/NASH mice) was “did not lead to changes”. For the same compound, the “Levels of oxidative stress in HF/NASH livers (MDA, 4-HNE, mtDNA)” value ([1]; liver) was “markedly decreased”, the “Antioxidant gene expression (GPx and GST superfamilies)” value ([1]; liver transcriptome) was “induced” and the “Expression of Gpx2, Gst family” value ([1]; liver transcriptome) was “markedly increased their expression beyond the ND levels”. The “Expression of Gpx3, Gpx8” value ([1]; liver transcriptome) was “restored expression of investigated genes to ND levels”, the “Serum levels of γ-glutamyltranspeptidase (GGT)” value ([1]; serum) was “decreased” and the “Frequency of serious adverse events” value ([2]; 140 μg and 200 μg vs placebo) was “low and comparable across groups”. The “Low density lipoprotein-cholesterol (LDL-C)” value ([2]; 140 μg and 200 μg, 12 weeks) was “dose-related increase”, the “Share of patients with pruritus whose events were of mild (Grade 1) severity” value ([2]; both Tropifexor groups (140 μg and 200 μg)) was over 60% and the “Treatment discontinuation rate due to pruritus” value ([2]; tropifexor 140 μg) was 2%. The “ALT, LS mean absolute change from baseline to Week 12 (SE)” value ([2]; tropifexor 140 μg once daily) was −20.1 (4.57) U/L, the “Body weight, LS mean absolute change from baseline to Week 12 (SE)” value ([2]; tropifexor 140 μg once daily) was −2.46 (0.38) kg and the “GGT, LS mean absolute change from baseline to Week 12 (SE)” value ([2]; tropifexor 140 μg once daily) was −39.2 (3.70) U/L. The “Prespecified endpoints at week 12” value ([2]; tropifexor 200 μg) was “met”, the “Treatment discontinuation rate due to pruritus” value ([2]; tropifexor 200 μg) was 6% and the “ALT, LS mean absolute change from baseline to Week 12 (SE)” value ([2]; tropifexor 200 μg once daily) was −23.6 (4.48) U/L. For the same compound, the “Body weight, LS mean absolute change from baseline to Week 12 (SE)” value ([2]; tropifexor 200 μg once daily) was −3.20 (0.37) kg, the “GGT, LS mean absolute change from baseline to Week 12 (SE)” value ([2]; tropifexor 200 μg once daily) was −40.9 (3.62) U/L and the “Biologic activity (GGT)” value (NASH patients; 10 to 90 μg daily for 12 weeks) was “clear dose response”. The “Target engagement (FGF19)” value (NASH patients; 10 to 90 μg daily for 12 weeks) was “clear dose response”, the “ALT and hepatic fat fraction compared to placebo” value (NASH patients; all doses (10, 30, 60 and 90 μg), 12 weeks) was “reduced” and the Tolerability (NASH patients; up to 90 μg daily) was “generally well tolerated”.

— US20220331341A1, “TREATMENT COMPRISING THE USE OF FXR AGONISTS” (Novartis AG, priority 2019, published 2022)
